We go through 7 molecules from US11648254B2 (Kumquat Biosciences Inc., priority 2021, dated 2023).

One assay addresses SOS1 (Homo sapiens (Human), UniProt Q07889). Kind of assay: Ras-SOS interaction assay (HTRF). The format is biochemical.
The subject of assay [1] is MIA PaCa-2 cells (K-Ras G12C). Kind of assay: Ras-SOS cellular growth inhibition assay (CellTiter-Glo, 3D). The format is cell-based. The settings on record: Homo sapiens. In outline: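 MIA PaCa-2 cells grown in ultra-low-attachment plates (3D) in DMEM/Ham's F12 with 10% FCS and 2.5% horse serum, treated the day after seeding with a 9-point 3-fold compound series for about 5 days. Viability by CellTiter-Glo luminescence; IC50 from four-parameter fit.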
On the technique in general: In ATP-based viability assays light output follows the ATP content of the culture.

Assay [2] concerns NCI-H1975 cells (EGFR T790M L858R). Kind of assay: EGFR-SOS cellular inhibition assay (CellTiter-Glo, 3D). The assay is classed as cell-based. The settings on record: Homo sapiens.
The mark [3] stands for this setting: K-RasG13D utilized, read-out: IC50 inhibition of SOS.
Setting [4] is: K-RasG13D, read-out: IC50 value against SOS1.
Setting [5] is: MIA PaCa-2, 120 h, MIA PaCa-2, 3D proliferation, about 5 days, read-out: Bio-Cell-Prolif-3D (MiaPaca2 IC50).
Where [6] appears, read: MIA PaCa-2, MIA PaCa-2, read-out: IC50 in inhibiting MIA PaCa-2 cell growth.
Where [7] appears, read: 120 h, NCI-H1975, 3D proliferation, about 5 days, read-out: Bio-Cell-Prolif-3D (H1975 IC50).
[8] abbreviates: NCI-H1975, EGFR T790M L858R, read-out: IC50 in inhibiting growth of NCI-H1975 cell line.

pIC50: −log10 of the molar value. Read-outs that look alike come from different tables or passages of the source.

Chain of SOS1 (Q07889 564-1049): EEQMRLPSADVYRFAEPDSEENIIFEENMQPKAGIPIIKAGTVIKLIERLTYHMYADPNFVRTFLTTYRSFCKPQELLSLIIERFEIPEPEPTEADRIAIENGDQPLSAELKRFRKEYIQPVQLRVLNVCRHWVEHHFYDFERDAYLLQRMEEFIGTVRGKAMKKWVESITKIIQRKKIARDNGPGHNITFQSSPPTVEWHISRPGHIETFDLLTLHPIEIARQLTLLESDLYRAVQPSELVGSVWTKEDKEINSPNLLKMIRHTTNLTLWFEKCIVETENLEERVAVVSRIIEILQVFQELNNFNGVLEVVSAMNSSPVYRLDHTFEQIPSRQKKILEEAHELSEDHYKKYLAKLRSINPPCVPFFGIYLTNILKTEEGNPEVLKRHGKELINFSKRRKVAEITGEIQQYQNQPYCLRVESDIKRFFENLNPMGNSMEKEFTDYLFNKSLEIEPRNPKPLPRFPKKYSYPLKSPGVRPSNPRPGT

On to `CNc1nc2nc(C)nc(N[C@H](C)c3cccc(C(F)F)c3F)c2cc1S(=O)(=O)C1CCN(C)CC1` [Compound 139, (R)-N4-(1-(3-(difluoromethyl)-2-fluorophenyl)ethyl)-N7,2-dimethyl-6-((1-methylpiperidin-4-yl)sulfonyl)pyrido[2,3-d]pyrimidine-4,7-diamine], for which the pIC50 (as a rule, the IC50 on a negative log10 scale, so that one unit is a factor of ten) at SOS1 (setting [3]) was > 7.00; at SOS1 (setting [4]) it was > 7.30; in assay [1] (setting [5]), ≥ 6.00; in assay [1] (setting [6]), > 6.30; in assay [2] (setting [7]), ≥ 6.00; in assay [2] (setting [8]) it was > 6.30.
As to `CCN1CCN(c2cc3c(N[C@H](C)c4cccc(C(F)F)c4F)nc(C)nc3nc2NC2COC2)CC1` [Compound 188, (R)-N4-(1-(3-(difluoromethyl)-2-fluorophenyl)ethyl)-6-(4-ethylpiperazin-1-yl)-2-methyl-N7-(oxetan-3-yl)pyrido[2,3-d] pyrimidine-4,7-diamine], the pIC50 was > 7.00 on SOS1 (setting [3]); > 7.30 at SOS1 (setting [4]); 5.00 to 6.00 in assay [1] (setting [5]); ≥ 6.00 in assay [2] (setting [7]); > 6.30 in assay [2] (setting [8]).
With `CCN1CCN(c2cc3c(N[C@H](C)c4cccc(C(F)(F)F)c4F)nc(C)nc3nc2OC)CC1` [Compound 383, (R)-6-(4-ethylpiperazin-1-yl)-N-(1-(2-fluoro-3-(trifluoromethyl)phenyl)ethyl)-7-methoxy-2-methylpyrido[2,3-d]pyrimidin-4-amine], the pIC50 was > 7.00 at SOS1 (setting [3]); > 7.30 at SOS1 (setting [4]); ≥ 6.00 in assay [1] (setting [5]); > 6.30 in assay [1] (setting [6]); ≥ 6.00 in assay [2] (setting [7]); > 6.30 in assay [2] (setting [8]).
Consider `C[C@@H](Nc1ncnc2nc(Cl)c(N3CCS(=O)(=O)CC3)cc12)c1cccc(C(F)(F)F)c1F` [Compound 330, (R)-4-(7-chloro-4-((1-(2-fluoro-3-(trifluoromethyl)phenyl)ethyl)amino)pyrido[2,3-d]pyrimidin-6-yl)thiomorpholine 1,1-dioxide], for which the negative logarithm of the IC50 (pIC50) is > 7.00 on SOS1 (setting [3]); > 7.30 on SOS1 (setting [4]); ≥ 6.00 in assay [1] (setting [5]); > 6.30 in assay [1] (setting [6]); ≥ 6.00 in assay [2] (setting [7]); > 6.30 in assay [2] (setting [8]).
Regarding `COc1nc2nc(C)nc(N[C@H](C)c3cccc(C(F)F)c3F)c2cc1[C@H]1CCCN(C)C1` [Compound 135, N-((R)-1-(3-(difluoromethyl)-2-fluorophenyl)ethyl)-7-methoxy-2-methyl-6-((R)-1-methylpiperidin-3-yl)pyrido[2,3-d] pyrimidin-4-amine], the negative logarithm of the IC50 (pIC50) at SOS1 (setting [3]) was > 7.00; on SOS1 (setting [4]), > 7.30; in assay [1] (setting [5]) it was ≥ 6.00; in assay [2] (setting [7]), ≥ 6.00.
In the case of `COc1nc2nc(C)nc(N[C@H](C)c3cccc(C(F)(F)CCC4CN(C)C4)c3F)c2cc1C1CCS(=O)(=O)CC1` [Compound 180, (R)-4-(4-((1-(3-(1,1-difluoro-3-(1-methylazetidin-3-yl)propyl)-2-fluorophenyl)ethyl)amino)-7-methoxy-2-methylpyrido[2,3-d]pyrimidin-6-yl)tetrahydro-2H-thiopyran 1,1-dioxide], the negative logarithm of the IC50 (pIC50) on SOS1 (setting [3]) is > 7.00; at SOS1 (setting [4]) it was > 7.30; in assay [1] (setting [5]), ≥ 6.00; in assay [1] (setting [6]), > 6.30; in assay [2] (setting [7]), ≥ 6.00; in assay [2] (setting [8]) it was > 6.30.
With `COc1nc2nc(C)nc(N[C@H](C)c3cccc(C(F)(F)F)c3F)c2cc1C1CCN(C(=O)[C@@H]2COCCO2)CC1` [Compound 301, ((S)-1,4-dioxan-2-yl)(4-(4-(((R)-1-(2-fluoro-3-(trifluoromethyl)phenyl)ethyl)amino)-7-methoxy-2-methylpyrido[2,3-d]pyrimidin-6-yl)piperidin-1-yl)methanone], the negative-log IC50 (pIC50) on SOS1 (setting [3]) is > 7.00; on SOS1 (setting [4]) it was > 7.30; in assay [1] (setting [5]) it was 5.00 to 6.00; in assay [2] (setting [7]) it was ≥ 6.00; in assay [2] (setting [8]) it was > 6.30.
